Values joined by “and” are separate entries in the source; they are usually repeats but may differ in a detail not shown here. Equal entries are not always repeated.
Details: Gas, Buoyancy - hydrostatic balance with magnetic suspension - two sinkers

N#N [nitrogen]
Details	mass density
340.01 K, 11962 kPa	114.845 kg/m3 and 114.844 kg/m3 and 114.842 kg/m3
340.01 K, 15961 kPa	150.241 kg/m3 and 150.238 kg/m3 and 150.239 kg/m3
340.01 K, 15962 kPa	150.242 kg/m3 and 150.24 kg/m3
340.01 K, 20072 kPa	184.447 kg/m3 [middle of 5 runs]
340.01 K, 20073 kPa	184.453 kg/m3
340.01 K, 24069 kPa	215.463 kg/m3
340.01 K, 24070 kPa	215.467 kg/m3 and 215.465 kg/m3 and 215.466 kg/m3
340.01 K, 28607 kPa	247.989 kg/m3 and 247.99 kg/m3
340.01 K, 28608 kPa	247.996 kg/m3 and 247.999 kg/m3 and 247.993 kg/m3
340.01 K, 33718 kPa	281.379 kg/m3
340.01 K, 33719 kPa	281.38 kg/m3 and 281.384 kg/m3
340.01 K, 33720 kPa	281.389 kg/m3 and 281.386 kg/m3
359.99 K, 5385.3 kPa	49.7747 kg/m3
359.99 K, 5385.4 kPa	49.7738 kg/m3 and 49.7746 kg/m3
359.99 K, 5385.5 kPa	49.7747 kg/m3 and 49.7744 kg/m3
359.99 K, 11539 kPa	104.182 kg/m3
359.99 K, 23337 kPa	197.246 kg/m3
360 K, 11538 kPa	104.181 kg/m3 and 104.18 kg/m3
360 K, 11539 kPa	104.182 kg/m3 and 104.181 kg/m3
360 K, 23336 kPa	197.238 kg/m3 and 197.239 kg/m3 and 197.241 kg/m3
360 K, 23337 kPa	197.243 kg/m3
379.99 K, 5685.7 kPa	49.5887 kg/m3 [middle of 4 runs]
379.99 K, 5685.8 kPa	49.589 kg/m3 and 49.5891 kg/m3
379.99 K, 12228 kPa	103.776 kg/m3 and 103.778 kg/m3
380 K, 12228 kPa	103.775 kg/m3 and 103.776 kg/m3
380 K, 24868 kPa	196.492 kg/m3 and 196.493 kg/m3 and 196.491 kg/m3
380 K, 24869 kPa	196.497 kg/m3 and 196.496 kg/m3 and 196.492 kg/m3
399.97 K, 499.5 kPa	4.2016 kg/m3 and 4.2015 kg/m3 and 4.2014 kg/m3
399.97 K, 999 kPa	8.3914 kg/m3 and 8.3913 kg/m3 and 8.3912 kg/m3
399.97 K, 1998 kPa	16.7314 kg/m3 and 16.7313 kg/m3 and 16.7315 kg/m3
399.97 K, 3996 kPa	33.2413 kg/m3 and 33.241 kg/m3 and 33.2411 kg/m3
399.97 K, 5994.1 kPa	49.4948 kg/m3 and 49.4949 kg/m3 and 49.4947 kg/m3
399.99 K, 5983.6 kPa	49.4072 kg/m3 and 49.4075 kg/m3
399.99 K, 5983.7 kPa	49.4089 kg/m3 and 49.4079 kg/m3
399.99 K, 5983.8 kPa	49.4087 kg/m3 and 49.4092 kg/m3
399.99 K, 12911 kPa	103.383 kg/m3
399.99 K, 12912 kPa	103.387 kg/m3
400 K, 12911 kPa	103.385 kg/m3 and 103.384 kg/m3 and 103.383 kg/m3
400 K, 12912 kPa	103.388 kg/m3
400 K, 26381 kPa	195.763 kg/m3 and 195.766 kg/m3
400 K, 26382 kPa	195.77 kg/m3
400 K, 26383 kPa	195.774 kg/m3
419.99 K, 6278.6 kPa	49.2274 kg/m3 [middle of 5 runs]
419.99 K, 13587 kPa	103.001 kg/m3 and 103.002 kg/m3
420 K, 13587 kPa	103 kg/m3 and 103.001 kg/m3 and 103.002 kg/m3
420 K, 27876 kPa	195.057 kg/m3 and 195.058 kg/m3 and 195.06 kg/m3
420 K, 27877 kPa	195.065 kg/m3 and 195.064 kg/m3
420 K, 27878 kPa	195.07 kg/m3
439.98 K, 499.5 kPa	3.8187 kg/m3 [middle of 5 runs]
439.98 K, 999 kPa	7.6237 kg/m3 and 7.6236 kg/m3 and 7.6238 kg/m3
439.98 K, 1998 kPa	15.1913 kg/m3 and 15.1914 kg/m3
439.98 K, 3995.9 kPa	30.1496 kg/m3 [middle of 4 runs]
439.98 K, 5993.9 kPa	44.8532 kg/m3 [middle of 4 runs]
439.99 K, 6571 kPa	49.0492 kg/m3
439.99 K, 6571.1 kPa	49.0504 kg/m3 and 49.0497 kg/m3 and 49.05 kg/m3
440 K, 14255 kPa	102.622 kg/m3 [middle of 6 runs]
440 K, 29348 kPa	194.34 kg/m3 and 194.342 kg/m3 and 194.344 kg/m3
440 K, 29349 kPa	194.345 kg/m3 and 194.347 kg/m3 and 194.348 kg/m3
459.99 K, 6861.3 kPa	48.8758 kg/m3 and 48.8757 kg/m3
460 K, 6861.3 kPa	48.8757 kg/m3 and 48.8759 kg/m3
460 K, 6861.4 kPa	48.8764 kg/m3
460 K, 14917 kPa	102.251 kg/m3 [middle of 5 runs]
460 K, 14918 kPa	102.253 kg/m3
460 K, 30809 kPa	193.675 kg/m3
460 K, 30810 kPa	193.681 kg/m3 and 193.677 kg/m3 and 193.678 kg/m3
460 K, 30811 kPa	193.683 kg/m3
460 K, 30812 kPa	193.69 kg/m3
479.99 K, 7148.6 kPa	48.7024 kg/m3
479.99 K, 7148.7 kPa	48.7027 kg/m3
480 K, 499.5 kPa	3.4995 kg/m3 [middle of 5 runs]
480 K, 999 kPa	6.9854 kg/m3 [middle of 5 runs]
480 K, 1998 kPa	13.9143 kg/m3 [middle of 5 runs]
480 K, 3996 kPa	27.6012 kg/m3 and 27.6015 kg/m3 and 27.6009 kg/m3
480 K, 5994 kPa	41.0449 kg/m3 and 41.045 kg/m3
480 K, 5994.1 kPa	41.0449 kg/m3 and 41.0443 kg/m3 and 41.045 kg/m3
480 K, 7148.6 kPa	48.7016 kg/m3 and 48.7015 kg/m3
480 K, 7148.7 kPa	48.7027 kg/m3
480 K, 15572 kPa	101.884 kg/m3 [middle of 5 runs]
480 K, 15573 kPa	101.886 kg/m3
480 K, 32254 kPa	193.025 kg/m3
480 K, 32255 kPa	193.027 kg/m3 and 193.029 kg/m3
480 K, 32256 kPa	193.032 kg/m3 and 193.035 kg/m3
500 K, 7433.7 kPa	48.5307 kg/m3 and 48.5313 kg/m3
500 K, 7433.8 kPa	48.531 kg/m3 and 48.5323 kg/m3 and 48.5317 kg/m3
500 K, 7433.9 kPa	48.5314 kg/m3
500 K, 16220 kPa	101.517 kg/m3 and 101.518 kg/m3 and 101.519 kg/m3
500 K, 16221 kPa	101.519 kg/m3 and 101.521 kg/m3
500 K, 33681 kPa	192.377 kg/m3
500 K, 33682 kPa	192.38 kg/m3 and 192.382 kg/m3
500 K, 33683 kPa	192.384 kg/m3
500 K, 33684 kPa	192.389 kg/m3
500 K, 33686 kPa	192.396 kg/m3

— the NIST ThermoML archive (doi:10.1016/j.jct.2006.09.012)
